Laboratory results published in the OPERA property sets (Mansouri et al. 2018).
Peptide text beside a SMILES is read from it.

| Structure (SMILES) | logP |
| --- | --- |
| CC1=C(O)C(=O)c2ccccc2C1=O | 1.2 |
| CN(C)C(N(C)C)=S(I)c1ccccc1 (configuration not stated) | -0.68 |
| O=C(Nc1ccccc1)Oc1ccccc1 | 3.3 |
| CN(C)C(=O)Nc1ccc(F)cc1 | 1.13 |
| O=C(O)C=CC(=O)c1ccccc1 | 1.53 |
| N#CCCc1ccccc1 | 1.72 |
| CNCC(O)c1ccc(O)cc1 (configuration not stated) | -0.45 |
| CC(C)c1cnc(NS(=O)(=O)c2ccc(N)cc2)nc1 | 1.23 |
| CC[C@H](C)[C@H](NC(C)=O)C(=O)N[C@H](C(N)=O)C(C)C (Ac-Ile-Val-NH2) | 0.16 |
| COc1c(C)cccc1C | 3.02 |
| N#Cc1ccc(C(O)C(CO)NC(=O)C(Cl)Cl)cc1 (configuration not stated) | 0.78 |
| C[C@@H](N)[C@@H](O)c1ccccc1 | 0.67 |
| N#CCN | -1.37 |
| O=S1OCC2C(CO1)C1(Cl)C(Cl)=C(Cl)C2(Cl)C1(Cl)Cl (configuration not stated) | 3.83 |
| c1cc2nc[nH]c2cn1 | 0.18 |
| COC(=O)C1=CCCN(C)C1 | 0.35 |
| CN(C)C(=O)Nc1cccc(C(F)(F)F)c1 | 2.42 |
| Cc1c[nH]c2ccccc12 | 2.6 |
| N#CCc1cccs1 | 1.26 |
| O=NN1CC=CC1 | 0.26 |
| COC(=O)c1cc(Cl)ccc1N | 3.3 |
| O=C[C@H](O)[C@@H](O)[C@H](O)[C@H](O)C(=O)O | -2.57 |

| Structure (SMILES) | logP |
| --- | --- |
| CCc1ccccc1OC(=O)NC | 1.93 |
| CCCCc1cccc(OCC(=O)O)c1 | 3.18 |
| NS(=O)(=O)c1cccc(S(N)(=O)=O)c1 | -0.55 |
| O=[N+]([O-])c1ccc(C=Cc2ncccn2)o1 | 1.34 |
| Cc1cccc(OC(=O)N(C)C)c1 | 2.05 |
| CCC1(CCC(C)C)C(=O)NC(=S)NC1=O | 2.98 |
| CCOC(=O)c1ccc(O)cc1 | 2.47 |
| COc1ccc(C(O)C(C(=O)O)c2ccc(-c3ccccc3)cc2)cc1 (configuration not stated) | 3.59 |
| Brc1ccncc1 | 1.54 |
| Cc1cccc2c(C)cccc12 | 4.38 |
| ClC1C=CC(Cl)C(Cl)C1Cl (configuration not stated) | 3.08 |
| C=CCCCCCCCCC(=O)O | 3.86 |
| C=CCOC(C)=O | 0.97 |
| Cc1cccc2c(N)cnnc12 | 1.57 |
| CCCCl | 2.04 |
| CNC(=O)OCc1c2c(n3c1C(OC(C)=O)CC3)C(=O)C=C(OC)C2=O (configuration not stated) | 1.19 |
| FCC1CO1 (configuration not stated) | -0.16 |
| O=[N+]([O-])c1cc[n+]([O-])c2c(F)cccc12 | 1 |
| CCCCCCn1nnc2ccccc21 | 3.7 |
| CC(=O)Nc1ccc2[nH]c(C)cc2c1 | 1.21 |
| NNC(=O)c1ccnc([N+](=O)[O-])c1 | -0.76 |
| C(=C\c1ccccc1)/c1ccccc1 | 4.81 |

| Structure (SMILES) | logP |
| --- | --- |
| COc1cc(S(C)=O)ccc1-c1nc2ncncc2[nH]1 (configuration not stated) | 0.53 |
| CCNC(=O)NO | -0.76 |
| CC(=O)NC(C(=O)NC(CCC(N)=O)C(N)=O)C(C)C (stereo not drawn) (Ac-Val-Gln-NH2; configuration not given here) | -1.82 |
| O=C(O)COc1cccc(Cl)c1 | 2.03 |
| NCCCCNC(=O)c1ccccc1 | 0.58 |
| O=NN1CCCC1 | -0.19 |
| CN(C)C(=O)OCc1cccc(N(C)C)c1 | 2.28 |
| c1ccc(C2CNCCO2)cc1 (configuration not stated) | 1.11 |
| O=C(CCBr)N1CCN(C(=O)CCBr)CC1 | 0.42 |
| COC(=O)c1ccsc1 | 1.76 |
| CC1OC(=O)c2ccccc21 (configuration not stated) | 1.41 |
| Clc1ccc(-c2ccc(Cl)c(Cl)c2Cl)c(Cl)c1Cl | 7.31 |
| CCC(CNC)c1ccccc1 (configuration not stated) | 2.82 |
| O=S(=O)(CF)Nc1ccccc1 | 1.35 |
| COc1ccc(-c2cc3ccccn3c2)cc1 | 4.2 |
| CCC(=O)Nc1ccc(Cl)c(Cl)c1 | 3.07 |
| Cc1cc(NN)ncn1 | 0.62 |
| C1COCCOCCOCCOCCO1 | -0.48 |
| CCOC(=O)c1c[nH]cc1C | 2.14 |
| CNC(=O)Oc1cc(C)ccc1C(C)(C)C | 3.14 |
| Cc1ccc(S(N)(=O)=O)cc1 | 0.82 |
| Oc1ccc(Cl)c(Cl)c1Cl | 3.8 |

| Structure (SMILES) | logP |
| --- | --- |
| CN(C)C(N(C)C)=S(I)c1cccc([N+](=O)[O-])c1 (configuration not stated) | -0.88 |
| CC1(C)C(C(=O)OC(C#N)c2cccc(Oc3ccccc3)c2)C1(C)C (configuration not stated) | 5.7 |
| CCOP(=O)(NC(C)C)Oc1ccc(SC)c(C)c1 (configuration not stated) | 3.23 |
| COP(=S)(Oc1cc(Cl)c(Br)cc1Cl)c1ccccc1 (configuration not stated) | 6.31 |
| CN(C)c1ccc(NS(=O)(=O)c2ccc(N)cc2)cc1 | 1.57 |
| Clc1ccc(-c2cc(Cl)c(Cl)cc2Cl)cc1 | 6.67 |
| Cc1cc2occ(C)c2c2oc(=O)ccc12 | 3.02 |
| CCCNCc1cccnc1 | 0.9 |
| c1ccc(N2CCCC2)cc1 | 3.56 |
| Clc1cc(Cl)c2c(Cl)ccc(Cl)c2c1 | 5.76 |
| CCCCNC1=CC(=O)c2ccccc2C1=O | 3.11 |
| Cc1ccccc1NS(=O)(=O)c1ccc(N)cc1 | 2.03 |
| Cc1ccc(-c2cc3ccccn3c2)cc1 | 4.96 |
| CC1(C)Oc2c(O)cccc2C1=O | 1.87 |
| ClCc1ccccc1 | 2.3 |
| CC(=O)c1ccccc1OCC(=O)O | 1.25 |
| COC(=O)Cc1ccccc1 | 1.83 |
| Cc1ccccc1C#N | 2.21 |
| Cc1ccc(C)[nH]1 | 1.47 |
| CCCNC(C)CC (configuration not stated) | 1.91 |
